{"source": "patent US11661398B2", "about": "“Cellular transport system for transferring a sulfonic acid construct carrying a cargo into the cytoplasm of a cell” (Scientist of Fortune, S.A., priority 2017, dated 2023)", "key": {"[1]": {"target": "T1, PnGGT ΔN24 D405N (Pseudomonas nitroreducens, UniProt E0D5C2, D405N)", "T1 sequence (E0D5C2 with tags, fused parts or gaps D405N)": "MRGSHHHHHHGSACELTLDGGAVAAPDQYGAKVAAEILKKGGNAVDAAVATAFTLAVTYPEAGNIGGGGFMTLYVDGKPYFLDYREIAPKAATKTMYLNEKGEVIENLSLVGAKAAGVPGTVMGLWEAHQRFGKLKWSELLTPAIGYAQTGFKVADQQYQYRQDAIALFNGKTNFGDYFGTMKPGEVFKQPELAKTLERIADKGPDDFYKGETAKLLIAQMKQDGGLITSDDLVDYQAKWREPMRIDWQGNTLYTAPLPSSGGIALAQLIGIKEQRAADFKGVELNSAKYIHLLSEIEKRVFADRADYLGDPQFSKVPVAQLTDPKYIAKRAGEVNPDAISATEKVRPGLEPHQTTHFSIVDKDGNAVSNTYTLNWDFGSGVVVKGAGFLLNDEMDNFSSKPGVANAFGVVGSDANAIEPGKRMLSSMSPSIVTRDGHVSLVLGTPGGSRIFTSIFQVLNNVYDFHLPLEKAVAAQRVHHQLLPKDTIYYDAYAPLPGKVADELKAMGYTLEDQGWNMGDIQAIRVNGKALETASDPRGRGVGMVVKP", "assay": "Kinetic measurements with purified PnGGT ΔN24 D405N", "assay_type": "biochemical", "conditions": "purified enzyme, 50 mM Tris-HCl (pH 9.0)", "description": "For the experiments relating to the sulfonate based synthetic transport system, purification of PnGGT ΔN24 and PnGGT ΔN24 D405N containing an N-terminal 6×His-tag was performed according to previous reports (Van Dyke et al., 1992) using Ni-NTA Superflow (Qiagen, Hilden, Germany). For kinetic studies, PnGGT variants were purified with the aid of the 6×His-tag located at the N-terminal end of the large subunit following the same procedure. To exchange the buffer, purified proteins were dialyzed against 50 mM Tris/HCl (pH 7.0).\nTo determine the kinetic parameters of PnGGT ΔN24 and PnGGT ΔN24 D405N the purified enzymes were preincubated in 50 mM Tris-HCl (pH 9.0). To start the reaction, varying concentrations of the substrates L-glutamic acid γ-(3-carboxy-4-nitroanilide) or sulfobutanoyl-p-nitroanilide were added to the mixtures. The results were evaluated using GraphPad Prism (GraphPad Software, La Jolla, Calif., USA)."}, "[2]": {"test_system": "BW25113 ΔleuB (TK080)", "assay": "Growth on different sulfur sources", "assay_type": "cell-based, E. coli", "conditions": "1 mM sulfur source, minimal medium, 0.5% glucose, 0.4 mM leucine", "description": "FIG. 21: Growth of E. coli on sulfonates. Strains TK080 (a; BW25113 ΔleuB) and TK082 (b; BW25113 ΔleuB ΔssuEADCB ΔtauD) were grown in MS minimal medium supplemented with 0.5% glucose, 0.4 mM L-leucine, 1 mM MgCl2 and 1 mM of a sulfur source. TK080 was able to use the majority of the tested sulfur sources with a similar efficiency as sulfate. […] Dots represent the average of three independent measurements with standard deviations shown as error bars.\nFor the experiments relating to the sulfonate based synthetic transport system, unless stated otherwise, growth experiments in selective medium were carried out in sulfur free MS minimal medium (4 mM citric acid, 1 mM MgCl2, 20 mM NH4Cl, 50 mM KH2PO4 and 1×NTA mix (10 μM nitrilotriacetic acid, 3 μM CaCl2, 3 μM FeCl3, 1 μM MnCl2, 0.3 μM ZnCl2, 0.3 μM H3B3, 0.3 μM CrC3, 0.3 μM COCl2, 0.3 μM CuCl2, 0.3 μM Ni2C, 0.3 μM Na2MoO4, 0.3 μM Na2SeO3)) supplemented with 0.5% glucose. MgSO4 (1 mM), MgCl2 (1 mM), L-leucine (0.4 mM), IPTG (0.5 mM), aTc (100 ng mL-1), nicotinic acid (various concentrations), 3-picolylamine (various concentrations) and sulfonates (various concentrations) as indicated in the text. […] Synthesis schemes for sulfobutanoyl-p-nitroanilide and other sulfonates are given below.\nThe sulfonate transporters SsuABC and TauABC transport a wide variety of sulfonate compounds (Eichhorn et al., 2000) and can thus be exploited for the present synthetic transport system. As such, the uptake and utilization of sulfobutanoyl-L-leucine was assessed. The leucine auxotrophic strain BW25113 ΔleuB was tested for growth in minimal medium supplemented with 0.5% glucose, 0.4 mM leucine, 0.4 mM isoleucine and 1 mM of a sulfur-containing compound as the sole sulfur source."}, "[3]": {"target": "T1, PnGGT ΔN24 D405N", "assay": "Colorimetric GGT assay in whole cell lysates / cell free extracts", "assay_type": "biochemical", "conditions": "whole cell lysate, 4 mM substrate, 50 mM Tris-HCl (pH 9.0), 410 nm", "description": "FIG. 22: Identification of GGT* activity and refactoring of the ssuABC operon. […] The release of 4-nitroaniline was quantified by measuring the absorption at 410 nm. (b) Plasmid map of the three-dimensional RBS-library for refactoring the ssuABC operon using 144 RBS variants per gene. RBS library sequences are underlined. Arrows point towards the final RBS sequences observed in plasmid pSsuABC. […] (e) Growth of strain TK088[pSsuABC]transformed with the empty vector pACT3 (black circles) or plasmid pPnGGT* (white circles) in liquid MS minimal medium supplemented with 0.5% glucose, 1 mM MgSO4, 0.4 mM L-leucine, 0.5 mM IPTG, 100 ng ml^−1 aTc and 0.5 mM sulfobutanoyl-L-histidine. Bars and dots from panels (a), (d) and (e) represent the average of three independent measurements with standard deviations shown as error bars.\nTo test for the desired activity a colorimetric enzyme assay was chosen and the substrate sulfobutanoyl-p-nitroanilide was synthesized for this purpose. Hydrolysis of this colorless substrate by a GGT variant into sulfobutanoic acid and the yellow dye 4-nitroaniline can be quantified photometrically at 410 nm. For that, cytoplasmic GGT variants containing an N-terminal 6×His-tag were first expressed from E. coli (EcGGT ΔN24) and Pseudomonas nitroreducens (PnGGT ΔN24), as well as EcGGT ΔN24 D433N and the corresponding mutant variant PnGGT ΔN24 D405N. […]"}}, "note": "Counter-ions that a name gives are not always drawn.", "data": [{"molecule": "O=C(CCCS(=O)(=O)O)Nc1ccc([N+](=O)[O-])cc1", "note": "[sodium salt]", "values": [{"measurement": "Km", "setting": "[1]", "value": 767, "unit": "µM"}, {"measurement": "Vmax", "setting": "[1]", "value": "10.35 ± 0.28", "unit": "µmol/min/mg"}, {"measurement": "kcat", "setting": "[1]", "value": 10.2, "unit": "s⁻¹"}, {"measurement": "growth with compound as sole sulfur source", "setting": "[2]", "value": "comparable to growth on other sulfonates"}, {"measurement": "hydrolysis of substrate", "setting": "[3]", "value": "significantly higher activity than EcGGT ΔN24 D433N"}]}]}
